Experimental findings from US12012410B2, “Substituted pyrazolo[1,5-a]pyrazines for spinal muscular atrophy” (REBORNA BIOSCIENCES, INC., priority 2018, dated 2024) are described below.

The test system of this experiment is FL-SMN mRNA (SMN transcript containing exons 7 and 8). Kind of experiment: Live-cell assay to measure changes in FL-SMN mRNA levels (qPCR) after exposure to the compounds. The class given is cell-based, human. Particulars: fibroblasts derived from patients SMA (GM03813); 24 hours incubation. The method, then:
In this example, each test compound was administered to cultured cells, and changes in the expression levels of mRNA transcripts of SMN, i.e., FL-SMN containing exons 7 and 8 and Delta7 with exon 7 skipped, were examined using PCR.
Fibroblasts derived from patients SMA (GM03813) (Coriell Cell Repositories) were cultured with passages using DMEM (High Glucose) (Life Technologies) supplemented with 10% FBS (Life Technologies). Cells were seeded in tissue-culture-treated 96-well plates (Corning) at 1.5 or 0.5×10^4 cells/well in 100 μL of medium. The cells were incubated in 5% CO2 for 6 hours, and the medium was replaced with 100 μL of medium (with DMSO, 0.1% final concentration) containing each of the compounds given in the Examples. After additional incubation for 24 hours under the same conditions, the cells were washed once with D-PBS(—) (Wako) and 25 μL/well of the lysis solution (with gDNA Remove) contained in the SuperPrep (registered trademark) Cell Lysis & RT Kit for qPCR (Toyobo life science) was added according to the manufacturer's instructions so that the cells were lysed and the genomic DNA was degraded. Furthermore, 5 μL of the STOP solution (with RNase Inhibitor) contained in the kit was added to provide RNA-containing solutions. Six microliters of the RNA-containing solutions were each mixed with 14 μL of a reverse transcription solution containing transcriptase together with dNTP, random primers and an oligodT primer. Reverse transcription was performed at 37° C. (15 min), 50° C. (5 min), and 98° C. (5 min), to give total cDNAs. The total cDNAs were diluted 30-fold with Ultra-pure water (Invitrogen) to measure the expression levels of FL-SMN, delta7, and GAPDH. For quantitative PCR (qPCR), a PCR solution was prepared according to the instructions of the manufacturer of the THUNDERBIRD (registered trademark) Probe qPCR Mix (Toyobo life science). Five microliters of the diluted total cDNA solutions and oligo DNA standard solutions, each containing either 001-Standard FL-SMN (SEQ ID NO. 1) or 002-Standard delta7 (SEQ ID NO. 2), were each mixed with 10 μL of each of the PCR solutions containing a qPCR probe, primers, and PCR enzyme. […] The oligoDNA standard solutions were prepared as those containing either of 5×10^8, 5×10^7, 5×10^6, 5×10^5, 5×10^4, 5×10^3, 5×10^2, 5×10, 5, or 0 copies. For the oligo DNA standards, primers, and probes, oligonucleotides synthesized by Integrated DNA Technologies, Inc. (IDT) were used. […] FIGS. 3B and 3D show their detection mechanisms. The final concentrations of the primers and probes added were 0.4 μM and 0.15 μM, respectively. The qPCR was performed using the following conditions on a ViiA7 instrument (Applied Biosystems): first stage: 95° C. (1 min)→second stage: 95° C. (15 sec)→third stage: 60° C. (1 min)→40 repeated cycles of the second and third stages. The GAPDH mRNA was used as the internal control, and the commercially available 20×gene expression PCR assay (Life Technologies, 4326317E, Hs99999905_ml) and Standard GAPDH (SEQ ID NO. 7) (see FIG. 1) was used to determine the number of copies of this gene. The measurement values obtained for the samples to be measured were standardized against the respective value obtained for GAPDH.
Using the above-mentioned assays, the activities of the compounds of the Examples were evaluated. Specifically, the percentages of the FL-SMN and delta7 values obtained using DMSO without the compounds and standardized against GAPDH were set as 100% and those of the FL-SMN and delta7 values obtained at the time of administration of the compounds and standardized against GAPDH were calculated. […]
For orientation: In qPCR the cycle at which signal appears reflects the starting amount.
For `COc1cccc(-c2nc3ccc(C4CCN(C)CC4)cc3c(=O)[nH]2)n1` [Example 45, 2-(6-methoxypyridin-2-yl)-6-(1-methylpiperidin-4-yl)quinazolin-4(3H)-one], the “Percentage of increase (FL-SMN mRNA standardized against GAPDH, DMSO control set as 100%)” value was “** (equal to or higher than 120% but lower than 150%)”.
Take `CN1CCC(c2ccc3nc(-c4cc5n(n4)CCOC5)[nH]c(=O)c3c2)CC1` [Example 46, 2-(6,7-dihyrdo-4H-pyrazolo[5,1-c][1,4]oxazin-2-yl)-6-(1-methylpiperidin-4-yl)quinazolin-4(3H)-one]: the “Percentage of increase (FL-SMN mRNA standardized against GAPDH, DMSO control set as 100%)” value was “* (equal to or higher than 100% but lower than 120%)”.
Turning to `COc1cccc(-c2nc3ccc(C4CCN(C)CC4)cc3c(=O)[nH]2)c1F` [Example 47, 2-(2-fluoro-3-methoxyphenyl)-6-(1-methylpiperidin-4-yl)quinazolin-4(3H)-one], the “Percentage of increase (FL-SMN mRNA standardized against GAPDH, DMSO control set as 100%)” value is reported as “* (equal to or higher than 100% but lower than 120%)”.
In the case of `COc1ccnc(-c2nc3ccc(C4CCN(C)CC4)cc3c(=O)[nH]2)c1` [Example 48, 2-(4-Methoxypyridin-2-yl)-6-(1-methylpiperidin-4-yl)quinazolin-4(3H)-one], the “Percentage of increase (FL-SMN mRNA standardized against GAPDH, DMSO control set as 100%)” value was “* (equal to or higher than 100% but lower than 120%)”.
Consider `COc1ccc(F)c(-c2nc3ccc(C4CCN(C)CC4)cc3c(=O)[nH]2)c1` [Example 49, 2-(2-fluoro-5-methoxyphenyl)-6-(1-methylpiperidin-4-yl)quinazolin-4(3H)-one], for which the “Percentage of increase (FL-SMN mRNA standardized against GAPDH, DMSO control set as 100%)” value was “* (equal to or higher than 100% but lower than 120%)”.
As for `Cc1cn2cc(-c3nc4ccc(N5CCN(C)CC5)cc4c(=O)[nH]3)nc2c(C)n1` [Example 50, 2-(6,8-dimethylimidazo[1,2-a]pyrazin-2-yl)-6-(4-methylpiperazin-1-yl)quinazolin-4(3H)-one], the entry is “** (equal to or higher than 120% but lower than 150%)”; as for `COc1cc2nc(-c3cc4c(C)nc(C)cn4n3)[nH]c(=O)c2cc1C1CCN(C)CC1` [Example 51, 2-(4,6-dimethylpyrazolo[1,5-a]pyrazin-2-yl)-7-methoxy-6-(1-methylpiperidin-4-yl)quinazolin-4(3H)-one], “* (equal to or higher than 100% but lower than 120%)”; as for `COc1cc(C2CCN(C)CC2)cc2c(=O)[nH]c(-c3cc4c(C)nc(C)cn4n3)nc12` [Example 52, 2-(4,6-dimethylpyrazolo[1,5-a]pyrazin-2-yl)-8-methoxy-6-(1-methylpiperidin-4-yl)quinazolin-4(3H)-one], “** (equal to or higher than 120% but lower than 150%)”.
Consider `Cc1cn2cc(-c3nc4ccc(N5CCN(C)CC5)cc4c(=O)[nH]3)cc(F)c2n1` [Example 53, 2-(8-fluoro-2-methylimidazo[1,2-a]pyridin-6-yl)-6-(4-methylpiperazin-1-yl)quinazolin-4(3H)-one], for which the “Percentage of increase (FL-SMN mRNA standardized against GAPDH, DMSO control set as 100%)” value is “** (equal to or higher than 120% but lower than 150%)”.
As for `Cc1nc(C)c2cc(-c3nc4ccc(N5CCN(C)CC5)cc4c(=O)[nH]3)nn2c1C` [Example 54, 6-(4-methylpiperazin-1 - yl)-2-(4,6,7-trimethylpyrazolo[1,5-a]pyrazin-2-yl)quinazolin-4(3H)-one], the “Percentage of increase (FL-SMN mRNA standardized against GAPDH, DMSO control set as 100%)” value is “* (equal to or higher than 100% but lower than 120%)”.
Take `Cc1cn2cc(-c3nc4ccc(N5CCN(C)CC5)cc4c(=O)[nH]3)cc(C)c2n1` [Example 55, 2-(2,8-dimethylimidazo[1,2-a]pyridin-6-yl)-6-(4-methylpiperazin-1-yl)quinazolin-4(3H)-one]: the “Percentage of increase (FL-SMN mRNA standardized against GAPDH, DMSO control set as 100%)” value is recorded as “** (equal to or higher than 120% but lower than 150%)”.
As for `Cc1cn2cc(-c3nc4cc(F)c(N5CCN(C)CC5)cc4c(=O)[nH]3)cc(F)c2n1` [Example 56, 7-fluoro-2-(8-fluoro-2-methylimidazo[1,2-a]pyridin-6-yl)-6-(4-methylpiperazin-1-yl)quinazolin-4(3H)-one], the “Percentage of increase (FL-SMN mRNA standardized against GAPDH, DMSO control set as 100%)” value is “** (equal to or higher than 120% but lower than 150%)”.
As to `Cc1cn2cc(-c3nc4cc(F)c(N5CCN(C)CC5)cc4c(=O)[nH]3)cc(C)c2n1` [Example 57, 2-(2,8-dimethylimidazo[1,2-a]pyridin-6-yl)-7-fluoro-6-(4-methylpiperazin-1 - yl)quinazolin-4(3H)-one], the “Percentage of increase (FL-SMN mRNA standardized against GAPDH, DMSO control set as 100%)” value is recorded as “** (equal to or higher than 120% but lower than 150%)”.
Turning to `Cc1cn2cc(-c3nc4ccc(N5CCN(C)CC5)cc4c(=O)[nH]3)ccc2n1` [Example 58, 2-(2-methylimidazo[1,2-a]pyridin-6-yl)-6-(4-methylpiperazin-1-yl)quinazolin-4(3H)-one], the “Percentage of increase (FL-SMN mRNA standardized against GAPDH, DMSO control set as 100%)” value is “** (equal to or higher than 120% but lower than 150%)”.
On to `Cc1nn(C)c2cc(F)c(-c3nc4ccc(N5CCN(C)CC5)cc4c(=O)[nH]3)cc12` [Example 59, 2-(6-fluoro-1,3-dimethyl-1H-indazol-5-yl)-6-(4-methylpiperazin-1-yl)quinazolin-4(3H)-one], for which the “Percentage of increase (FL-SMN mRNA standardized against GAPDH, DMSO control set as 100%)” value was “* (equal to or higher than 100% but lower than 120%)”.
The entry for `Cc1cn2cc(-c3ccc4nc(C5CCN(C)CC5)[nH]c(=O)c4c3C)ccc2n1` [Example 60, 5-methyl-6-(2-methylimidazo[1,2-a]pyridin-6-yl)-2-(1-methylpiperidin-4-yl)quinazolin-4(3H)-one] is “** (equal to or higher than 120% but lower than 150%)”.
For the molecule `Cc1cn2c(C)c(-c3ccc4nc(C5CCN(C)CC5)[nH]c(=O)c4c3)ccc2n1` [Example 61, 6-(2,5-dimethylimidazo[1,2-a]pyridin-6-yl)-2-(1-methylpiperidin-4-yl)quinazolin-4(3H)-one], the “Percentage of increase (FL-SMN mRNA standardized against GAPDH, DMSO control set as 100%)” value was “* (equal to or higher than 100% but lower than 120%)”.
The entry for `Cc1cn2cc(-c3cc4c(=O)[nH]c(C5CCN(C)CC5)nc4cc3C)ccc2n1` [Example 62, 7-methyl-6-(2-methylimidazo[1,2-a]pyridin-6-yl)-2-(1-methylpiperidin-4-yl)quinazolin-4(3H)-one] is “* (equal to or higher than 100% but lower than 120%)”; for `Cc1cn2cc(-c3ccc4nc(C5CCN(C)CC5)[nH]c(=O)c4c3)c(C)cc2n1` [Example 63, 6-(2,7-dimethylimidazo[1,2-a]pyridin-6-yl)-2-(1-methylpiperidin-4-yl)quinazolin-4(3H)-one] it is “* (equal to or higher than 100% but lower than 120%)”.
In the case of `Cc1cn2cc(-c3nc4ccc(N5CCN(C)CC5)cc4c(=O)[nH]3)cc2c(C)n1` [Example 64, 2-(1,3-dimethylpyrrolo[1,2-a]pyrazin-7-yl)-6-(4-methylpiperazin-1-yl)quinazolin-4(3H)-one], the “Percentage of increase (FL-SMN mRNA standardized against GAPDH, DMSO control set as 100%)” value is recorded as “* (equal to or higher than 100% but lower than 120%)”.
Turning to `CN1CCC(c2nc3ccc(-c4ccc5nccn5c4)cc3c(=O)[nH]2)CC1` [Example 65, 6-(imidazo[1,2-a]pyridin-6-yl)-2-(1-methylpiperidin-4-yl)quinazolin-4(3H)-one], the “Percentage of increase (FL-SMN mRNA standardized against GAPDH, DMSO control set as 100%)” value is listed as “** (equal to or higher than 120% but lower than 150%)”.
